Reference: the supplement of paper PMC8149375

Columns and labels:
Details in all cases: treatment: drug alone; 5 days
[1] = system: UO-31; test: GI50, drug alone; higher = less potent
Procedure: (§1)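 Primary HTS: 8 RCC cell lines treated with 8 doses (up to 10 uM) of each library drug alone for 5 days; viability read by CellTiter-Glo and normalised to DMSO. GI50 was fitted with XLfit (4-parameter), AUC is the area under the dose-response curve, and minimum viability is the lowest fraction of DMSO viability across doses.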

[2] = system: TK-10; test: GI50, drug alone; higher = less potent
Procedure: as §1

[3] = system: A498; test: GI50, drug alone; higher = less potent
Procedure: as §1

[4] = system: ACHN; test: GI50, drug alone; higher = less potent
Procedure: as §1

[5] = system: 769-P; test: GI50, drug alone; higher = less potent
Procedure: as §1

[6] = system: SN12C; test: GI50, drug alone; higher = less potent
Procedure: as §1

[7] = system: CAKI-1; test: GI50, drug alone; higher = less potent
Procedure: as §1

[8] = system: 786-O; test: GI50, drug alone; higher = less potent
Procedure: as §1

[9] = system: UO-31; test: minimum viability across doses, drug alone, relative to DMSO (fraction); higher = less growth inhibition
Procedure: as §1

[10] = system: TK-10; test: as above
Procedure: as §1

[11] = system: A498; test: as above
Procedure: as §1

[12] = system: ACHN; test: as above
Procedure: as §1

[13] = system: 769-P; test: as above
Procedure: as §1

[14] = system: SN12C; test: as above
Procedure: as §1

[15] = system: CAKI-1; test: as above
Procedure: as §1

[16] = system: 786-O; test: as above
Procedure: as §1

[17] = system: UO-31; test: AUC of dose-response viability curve, drug alone (arbitrary (AUC of normalised viability)); higher = less growth inhibition
Procedure: as §1

[18] = system: TK-10; test: as above
Procedure: as §1

[19] = system: A498; test: as above
Procedure: as §1

[20] = system: ACHN; test: as above
Procedure: as §1

[21] = system: 769-P; test: as above
Procedure: as §1

[22] = system: SN12C; test: as above
Procedure: as §1

[23] = system: CAKI-1; test: as above
Procedure: as §1

[24] = system: 786-O; test: as above
Procedure: as §1

SMILES	GI50, drug alone [1] [nM]	GI50, drug alone [2] [nM]	GI50, drug alone [3] [µM]	GI50, drug alone [4] [nM]	GI50, drug alone [5] [nM]	GI50, drug alone [6] [nM]	GI50, drug alone [7] [µM]	GI50, drug alone [8] [nM]	minimum viability across doses [9]	minimum viability across doses [10]	minimum viability across doses [11]	minimum viability across doses [12]	minimum viability across doses [13]	minimum viability across doses [14]	minimum viability across doses [15]	minimum viability across doses [16]	AUC of dose-response viability curve [17]	AUC of dose-response viability curve [18]	AUC of dose-response viability curve [19]	AUC of dose-response viability curve [20]	AUC of dose-response viability curve [21]	AUC of dose-response viability curve [22]	AUC of dose-response viability curve [23]	AUC of dose-response viability curve [24]
CN1C(=O)C(Cc2c[nH]c3ccccc23)NC1=S (stereo unspecified) [Necrostatin-1]	> 10000	> 10000	> 10	> 10000	> 10000	> 10000	> 10	28.3	1.01	0.729	0.888	0.79	0.968	0.868	0.916	0.334	4.83	2.91	4.28	2.99	3.6	3.29	3.5	2.03
CCOc1cc2ncc(C#N)c(Nc3ccc(OCc4ccccn4)c(Cl)c3)c2cc1NC(=O)/C=C/CN(C)C [Neratinib (HKI-272)]	> 10000	161	> 10	77.1	1140	1350	0.407	756	0.697	0.251	0.894	0.117	0.0782	0.315	0.161	0.345	4.06	1.77	3.99	1.48	2.43	2.44	2.11	2.38
Cc1cn(-c2cc(NC(=O)c3ccc(C)c(Nc4nccc(-c5cccnc5)n4)c3)cc(C(F)(F)F)c2)cn1 [Nilotinib (AMN-107)]	> 10000	> 10000	> 10	> 10000	> 10000	> 10000	> 10	> 10000	0.654	0.56	0.788	0.797	0.93	0.877	0.763	0.827	4.08	2.96	4.05	3.32	3.46	3.37	3.76	3.8
COc1ccc(C2=NC(c3ccc(Cl)cc3)C(c3ccc(Cl)cc3)N2C(=O)N2CCNC(=O)C2)c(OC(C)C)c1 (stereo unspecified) [Nutlin-3]	> 10000	> 10000	> 10	5640	> 10000	> 10000	8.04	> 10000	0.99	0.805	0.914	0.278	0.677	0.846	0.383	0.756	4.29	2.99	3.9	2.82	3.42	3.31	3.34	3.29
COc1cccc2cc(-c3nc([C@H]4CC[C@H](C(=O)O)CC4)n4ncnc(N)c34)[nH]c12 [OSI-027]	2520	1930	9.27	1910	8490	2390	1.17	1660	0.00484	0.191	0.148	0.105	0.408	0.168	0.0475	0.185	3.1	2.64	3.75	2.85	3.12	2.77	2.58	2.49
C#Cc1cccc(Nc2ncnc3cc(OCCOC)c(OCCO)cc23)c1.Cl [OSI-420 (Desmethyl Erlotinib)]	> 10000	2420	> 10	827	3590	> 10000	3.01	101	0.906	0.416	0.92	0.101	0.36	0.6	0.159	0.443	3.38	2.29	3.79	2.38	2.69	2.95	2.79	2.49
O=C(Nc1ccc(OC(F)(F)F)cc1)c1sccc1NCc1ccnc2ccccc12 [OSI-930]	1350	> 10000	> 10	5420	> 10000	8320	8.11	7470	0.173	0.572	0.722	0.175	0.871	0.158	0.264	0.372	3.46	3.23	3.58	3.25	3.39	3.5	3.63	2.81
COC1=CC(c2cc3ccccc3[nH]2)=N/C1=C\c1[nH]c(C)cc1C.CS(=O)(=O)O [Obatoclax mesylate (GX15-070)]	158	185	0.438	81.1	309	213	0.379	7.53	0.00526	0.17	0.00496	0.0118	0.0323	0.00313	0.011	0.0051	2.07	1.79	1.95	1.41	2.01	1.74	2.23	0.668
C=CCc1cccc(/C=N/NC(=O)CN2CCN(Cc3ccccc3)CC2)c1O [PAC-1]	1700	1620	8.78	740	2320	3350	3.23	610	0.0166	0.0835	0.368	0.0162	0.0295	0.138	0.117	0.00713	3.29	2.69	3.43	2.23	2.94	3.01	3.2	2.18
CCCCCCCCCCCCc1ccc(S(=O)(=O)Nc2nncs2)cc1 [PHT-427]	> 10000	> 10000	> 10	> 10000	> 10000	> 10000	> 10	> 10000	1.14	0.797	1.05	0.824	0.855	0.858	0.959	0.512	4.78	2.94	4.29	3.08	3.26	3.22	3.62	2.32
Oc1cccc(-c2nc(N3CCOCC3)c3oc4ncccc4c3n2)c1 [PI-103]	339	527	0.584	286	1360	360	0.858	355	0.0085	0.136	0.0881	0.119	0.0599	0.118	0.0544	0.00638	1.8	2.15	2.26	2.08	2.53	1.91	2.37	2
Cc1ccc([N+](=O)[O-])cc1S(=O)(=O)N(C)/N=C/c1cnc2ccc(Br)cn12.Cl [PIK-75]	84	70.5	0.0821	30.1	117	70	0.0258	40.2	0.00672	0.121	0.0119	0.00398	0.0087	0.00713	0.0354	0.00345	1.71	1.56	1.5	1.01	1.61	1.33	0.988	1.09
COc1ccc2c(c1OC)N=C(NC(=O)c1cccnc1)N1CCN=C21 [PIK-90]	> 10000	> 10000	> 10	> 10000	> 10000	3410	3.06	> 10000	0.822	0.616	1.02	0.655	0.693	0.175	0.358	0.53	3.42	2.75	3.98	3.1	3.07	2.7	2.42	2.46
CC(=O)Nc1nc(C)c(-c2ccc(Cl)c(S(=O)(=O)NCCO)c2)s1 [PIK-93]	> 10000	8010	> 10	7460	> 10000	8030	5.07	746	1.15	0.377	0.8	0.408	0.565	0.434	0.287	0.202	4.68	2.74	4.19	3.14	3.19	2.98	3.11	1.86
Cc1ccccc1-n1c(Cn2ncc3c(N)ncnc32)nc2cccc(C)c2c1=O [PIK-293]	> 10000	> 10000	> 10	> 10000	> 10000	> 10000	> 10	> 10000	1.2	0.734	0.982	0.928	0.949	0.837	0.902	0.581	4.72	3.07	3.9	3.53	3.49	3.16	3.46	2.42
CCn1nnc2c(N3CCOCC3)nc(-c3ccc(NC(=O)Nc4ccc(C(=O)N5CCN(C)CC5)cc4)cc3)nc21 [PKI-402]	162	179	0.165	224	1140	99.1	0.241	117	0.0165	0.0487	0.156	0.0633	0.102	0.118	0.0473	0.00561	1.99	1.71	2.25	1.89	2.51	1.66	1.91	1.66
CCCS(=O)(=O)Nc1ccc(F)c(C(=O)c2c[nH]c3ncc(Cl)cc23)c1F [PLX-4720]	> 10000	> 10000	> 10	2460	> 10000	> 10000	7.55	4860	0.944	0.574	0.885	0.197	0.817	0.875	0.278	0.335	4.19	3.13	4.12	2.57	3.18	3.44	3.33	2.5
CC(C)n1nc(-c2cc3cc(O)ccc3[nH]2)c2c(N)ncnc21 [PP242]	4100	522	2.91	348	1550	677	0.523	1300	0.00829	0.0788	0.0519	0.05	0.0576	0.0949	0.0389	0.00205	3.42	2.12	2.93	2.07	2.56	2.23	2.12	2.02
Nc1ncnc2c1c(-c1cnc3[nH]ccc3c1)nn2C1CCCC1 [PP-121]	1530	415	2.73	455	1350	1040	0.583	429	0.0162	0.0113	0.0928	0.0162	0.0337	0.0559	0.00982	0.00427	3.41	2.1	3.11	2.23	2.53	2.54	2.37	2.13
